Reference: patent publication US9221822B2, “Thiazolopyrimidine modulators as immunosuppressive agents” (Katholieke Universiteit Leuven, K.U.Leuven R&D, priority 2009, dated 2015)

How the values were obtained:
[1] = tested on: cardiac allograft (C57BL/6 H-2b donor heart in Balb/c H-2d recipient); assay: mouse model of cardiac allograft transplantation (graft survival); assay type: in vivo
Procedure: Inbreed C57BL/6 H-2^b and Balb/c H-2^d female mice, 8-10 weeks old, 20-25 g, were used as donor and recipient, respectively. Heterotopic heart transplantation was performed by implanting the donor heart on the neck of recipients using conventional microsurgery techniques. Graft beating was checked daily by inspection and palpation. Cessation of beating indicated graft rejection, which was confirmed by histological examination. Housing and all experimental animal procedures were approved by the Institutional Animal Care and Research Advisory Committee of the KU Leuven.

[2] = tested on: Human peripheral blood mononuclear cells (PBMCs) as Responder cells, RPMI 1788 Stimulator cells; assay: Mixed Lymphocyte Reaction (MLR) test; assay type: cell-based; conditions: Homo sapiens, RPMI-1788, lowest concentration giving 50% inhibition of the MLR; 6 days coculture, 3H-thymidine incorporation
Summary of the method: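 Human PBMC responders (0.12×10^6) were cocultured 6 days with mitomycin C-treated RPMI 1788 stimulators (0.045×10^6) and compound in RPMI 1640 with 10% FCS, in triplicate. A ^3H-thymidine pulse on day 5, harvested 18 h later, measured proliferation (cpm), converted to % inhibition versus a compound-free MLR.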

| SMILES | IC50 [2] [µM] | further results |
| --- | --- | --- |
| CCOc1nc(N)nc2sc(-c3ccc(F)cc3)cc12 [Example 363, 4-ethoxy-6-(4-fluorophenyl)thieno[2,3-d]pyrimidin-2-amine] |  | melting point: 142 °C |
| Nc1nc(N2CCN(C(=O)COc3ccc(Cl)cc3)CC2)c2nc(-c3cccnc3)sc2n1 [Example 121a, 5-amino-7-[4-(4-chlorophenoxyacetyl)piperazin-1-yl]-2-(pyridine-3-yl)thiazolo[5,4-d]pyrimidine] | 0.05 | grafts with continuous survival during treatment ([1]; Example 448, 40 mg/kg by daily oral gavage until day 30, n=4): 3 out of 4; graft beating after withdrawal of the treatment ([1]; Example 448, 40 mg/kg oral, treatment stopped day 30): continued beating after withdrawal of the treatment (up to 60 days) |
| Cc1ccc(NC(=O)N2CCN(c3nc(N)nc4sc(-c5cccnc5)nc34)CC2)cc1 [Example 222, 4-(5-amino-2-(pyridin-3-yl)thiazolo[5,4-d]pyrimidin-7-yl)-N-p-tolylpiperazine-1-carboxamide] |  | graft survival ([1]; Example 449, 20 mg/kg per day): up to 13 days; grafts continuously functioning after stopping the treatment on day 30 ([1]; Example 449, 40 mg/kg per day): 3/4; grafts with continuous survival during treatment ([1]; Example 449, 40 mg/kg per day by daily gavage until day 30): 4/6 |
| Nc1nc(N2CCN(S(=O)(=O)Cc3ccccc3)CC2)c2nc(-c3ccc(F)cc3)[nH]c2n1 [Example 405, 6-(4-(benzylsulfonyl)piperazin-1-yl)-8-(4-fluorophenyl)-9H-purin-2-amine] | > 10 |  |
| CC(C)N(C(=O)N1CCN(c2nc(N)nc3sc(-c4ccc(F)cc4)cc23)CC1)C(C)C [Example 347, 4-(2-amino-6-(4-fluorophenyl)thieno[2,3-d]pyrimidin-4-yl)-N,N-diisopropylpiperazine-1-carboxamide] | 8.2 |  |
| Nc1nc(N2CCN(C(=O)Nc3ccc(F)cc3F)CC2)c2nc(-c3ccc(F)cc3)sc2n1 [Example 217, 4-(5-amino-2-(4-fluorophenyl)thiazolo[5,4-d]pyrimidin-7-yl)-N-(2,4-difluorophenyl)piperazine-1-carboxamide] | 0.345 |  |
| CN(C(=O)CN1CCN(c2nc(N)nc3sc(CCc4ccc(F)cc4)nc23)CC1)c1ccccc1 [Example 139, 5-amino-2-[2-(4-fluorophenyl)ethyl]-7-(4-[(methylphenylcarbamoyl)-methyl]piperazin-1-yl)-thiazolo[5,4-d]pyrimidine] | 3.29 |  |
| Cc1cc(Cl)ccc1OCC(=O)N1CCN(c2nc(N)nc3sc(-c4ccc(F)cc4)nc23)CC1 [Example 213, 1-(4-(5-amino-2-(4-fluorophenyl)thiazolo[5,4-d]pyrimidin-7-yl)piperazin-1-yl)-2-(4-chloro-2-methylphenoxy)ethanone] | 0.219 |  |
| Nc1nc(N2CCN(C(=O)COc3ccc(Cl)cc3)CC2)c2nc(-c3ccc(F)cc3)n(Cc3ccccc3)c2n1 [Example 431, 1-(4-(2-amino-9-benzyl-8-(4-fluorophenyl)-9H-purin-6-yl)piperazin-1-yl)-2-(4-chlorophenoxy)ethanone] | > 10 |  |
| Nc1nc(N2CCN(C(=O)COc3ccc(Cl)cc3)CC2)c2nc(SCc3ccccc3)[nH]c2n1 [Example 426, 1-(4-(2-amino-8-(benzylthio)-9H-purin-6-yl)piperazin-1-yl)-2-(4-chlorophenoxy)ethanone] | 3.28 |  |
| Nc1nc(N2CCN(C(=O)COc3ccc(Cl)cc3)CC2)c2nc(CCOc3ccc(F)cc3)sc2n1 [Example 48, 1-(4-(5-amino-2-(2-(4-fluorophenoxy)ethyl)thiazolo[5,4-d]pyrimidin-7-yl)piperazin-1-yl)-2-(4-chlorophenoxy)ethanone] | 3.54 |  |
| CCCCCc1nc2c(N3CCN(C(=O)COc4ccc(Cl)cc4)CC3)nc(N)nc2s1 [Example 297, 1-(4-(5-amino-2-pentylthiazolo[5,4-d]pyrimidin-7-yl)piperazin-1-yl)-2-(4-chlorophenoxy)ethanone] | 0.69 |  |
| Nc1nc(N2CCN(C(=O)COc3ccc(Br)cc3)CC2)c2nc(Cc3ccc(F)cc3)sc2n1 [Example 231, 1-(4-(5-amino-2-(4-fluorobenzyl)thiazolo[5,4-d]pyrimidin-7-yl)piperazin-1-yl)-2-(4-bromophenoxy)ethanone] | 0.55 |  |
| Nc1nc(N2CCN(C(=O)COc3ccc(Br)cc3)CC2)c2nc(CCc3ccc(F)cc3)sc2n1 [Example 52, 1-(4-(5-amino-2-(4-fluorophenethyl)thiazolo[5,4-d]pyrimidin-7-yl)piperazin-1-yl)-2-(4-bromophenoxy)ethanone] | > 10 |  |
